Where no end group is shown, it is not given here.
Key:
[1] = test system: NKG2A+/NKG2C− NK cells; assay: NK cell activation markers in NKG2A+/NKG2C- NK cells incubated with peptide and K562 expressing HLA-E (inhibition); type: cell-based, human; conditions: for percentage of CCL3+ NK cells / percentage of CD107a+ NK cells / percentage of IFNG+ NK cells / percentage of TNF+ NK cells: NKG2A+/NKG2C- NK cells, K562/HLA-E
Method in brief: (§1)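 K562 + HLA-E, pulsed with human/CMV proteome peptides → incubated with sorted NK subsets → surface marker staining, % positive cells. Increase = activation; decrease = inhibition.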

[2] = test system: NKG2A−/NKG2C− NK cells; assay: NK cell activation markers in control NKG2A-/NKG2C- NK cells incubated with peptide and K562 expressing HLA-E; type: cell-based, human
Method in brief: as §1

[3] = biological target: CD94/NKG2C (Homo sapiens, UniProt P26717+Q13241); assay: Steady-state surface plasmon resonance of peptide-HLA-E complex with CD94/NKG2C; type: binding; conditions: for Binding of peptide-HLA-E complexes to CD94/NKG2C normalized to a theoretical Rmax: steady-state SPR
Sequence of CD94/NKG2C (P26717 94-231 limits assumed): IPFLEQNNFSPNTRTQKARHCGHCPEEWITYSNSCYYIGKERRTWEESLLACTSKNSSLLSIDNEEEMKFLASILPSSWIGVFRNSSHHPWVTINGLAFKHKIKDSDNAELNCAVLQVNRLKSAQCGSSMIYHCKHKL
Sequence of CD94/NKG2C (Q13241 32-179 limits assumed): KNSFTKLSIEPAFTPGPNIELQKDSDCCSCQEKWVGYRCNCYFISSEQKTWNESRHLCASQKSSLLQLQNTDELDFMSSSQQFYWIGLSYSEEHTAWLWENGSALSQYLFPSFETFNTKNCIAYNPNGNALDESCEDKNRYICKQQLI
Experimental: Binding affinity of novel peptides linked to HLA-E was determined using surface plasmon resonance (SPR), a methodology used to study protein-protein interactions (Tables 15-19). The peptide-HLA-E complex (generated as a single chain trimer) was immobilized on the sensor chip surface and CD94/NKG2A or CD94/NKG2C were flowed over. Steady-state surface plasmon resonance experiments were performed with a Biacore T200 instrument. CD94/NKG2x in HBS-EP+ buffer was injected as analyte in a concentration range of 0.1 μM to 102.4 μM and flow rate of 10 μL/min at 25° C. Data was fit with Prism 9.4 (GraphPad Software Inc; San Diego CA) to a “one site, specific binding” model. Series S CM5 chips were coupled to neutravidin and utilized. Biotinylated pMHC was immobilized at approximately 400 RU. KD values calculated by Biacore software are reported. Rmax, fit values were calculated by Biacore software. Rmax, theoretical values were calculated using the analyte/ligand mass ratio (0.66) multiplied by the amount of ligand coupled to the chip.

[4] = test system: NKG2A−/NKG2C+ NK cells; assay: NK cell activation markers in NKG2A-/NKG2C+ NK cells incubated with peptide and K562 expressing HLA-E (activation); type: cell-based, human; conditions: for percentage of CCL3+ NK cells / percentage of CD107+ NK cells / percentage of IFNG+ NK cells / percentage of TNF+ NK cells: NKG2A-/NKG2C+ NK cells, K562/HLA-E
Method in brief: as §1

[5] = K562 expressing HLA-E, CD107a, IFNG, TNF, CCL3

TLPKRGLFL [human2, TLPKRGLFL]
effect on NKG2A+/NKG2C− NK cell inhibition (in words) [1, 5]: mild inhibitory effects | percentage of CCL3+ NK cells ([1]; Trial 1): 17.5% | percentage of CD107a+ NK cells ([1]; Trial 1): 10.8% | percentage of IFNG+ NK cells ([1]; Trial 1): 2.35% | percentage of TNF+ NK cells ([1]; Trial 1): 0.83% | percentage of CCL3+ NK cells ([1]; Trial 2): 34.9% | percentage of CD107a+ NK cells ([1]; Trial 2): 13% | percentage of IFNG+ NK cells ([1]; Trial 2): 2.85% | percentage of TNF+ NK cells ([1]; Trial 2): 1.25% | percentage of CCL3+ NK cells ([1]; Trial 3): 17.3% | percentage of CD107a+ NK cells ([1]; Trial 3): 16.7% | percentage of IFNG+ NK cells ([1]; Trial 3): 7.56% | percentage of TNF+ NK cells ([1]; Trial 3): 3.94% | percentage of CCL3+ NK cells ([1]; Trial 4): 13.3% | percentage of CD107a+ NK cells ([1]; Trial 4): 15.1% | percentage of IFNG+ NK cells ([1]; Trial 4): 2.41% | percentage of TNF+ NK cells ([1]; Trial 4): 1.74% | percentage of CCL3+ NK cells ([1]; Trial 5): 29.3% | percentage of CD107a+ NK cells ([1]; Trial 5): 14.4% | percentage of IFNG+ NK cells ([1]; Trial 5): 5.78% | percentage of TNF+ NK cells ([1]; Trial 5): 2.47% | percentage of CCL3+ NK cells ([1]; Trial 6): 16.2% | percentage of CD107a+ NK cells ([1]; Trial 6): 14% | percentage of IFNG+ NK cells ([1]; Trial 6): 3.48% | percentage of TNF+ NK cells ([1]; Trial 6): 2.18% | percentage CCL3+ NK cells ([2]; Trial 1): 31.9% | percentage CD107+ NK cells ([2]; Trial 1): 26.1% | percentage TNF+ NK cells ([2]; Trial 1): 4.12% | percentage of IFNG+ NK cells ([2]; Trial 1): 16.2% | percentage CCL3+ NK cells ([2]; Trial 2): 57.4% | percentage CD107+ NK cells ([2]; Trial 2): 34.1% | percentage TNF+ NK cells ([2]; Trial 2): 8.51% | percentage of IFNG+ NK cells ([2]; Trial 2): 24.9% | percentage CCL3+ NK cells ([2]; Trial 3): 49.9% | percentage CD107+ NK cells ([2]; Trial 3): 46.1% | percentage TNF+ NK cells ([2]; Trial 3): 15.8% | percentage of IFNG+ NK cells ([2]; Trial 3): 37.4% | percentage CCL3+ NK cells ([2]; Trial 4): 34.8% | percentage CD107+ NK cells ([2]; Trial 4): 30.1% | percentage TNF+ NK cells ([2]; Trial 4): 9.02% | percentage of IFNG+ NK cells ([2]; Trial 4): 18.9% | percentage CCL3+ NK cells ([2]; Trial 5): 25.6% | percentage CD107+ NK cells ([2]; Trial 5): 18.1% | percentage TNF+ NK cells ([2]; Trial 5): 6.52% | percentage of IFNG+ NK cells ([2]; Trial 5): 13.9% | percentage CCL3+ NK cells ([2]; Trial 6): 24.6% | percentage CD107+ NK cells ([2]; Trial 6): 19.1% | percentage TNF+ NK cells ([2]; Trial 6): 5.25% | percentage of IFNG+ NK cells ([2]; Trial 6): 10% | binding of peptide-HLA-E complex to CD94/NKG2C normalized to a fitted Rmax ([3]; CD94/NKG2C concentration 0 μM): −0.005 | binding of peptide-HLA-E complex to CD94/NKG2C normalized to a fitted Rmax ([3]; CD94/NKG2C concentration 0.1 μM): 0.003 | binding of peptide-HLA-E complex to CD94/NKG2C normalized to a fitted Rmax ([3]; CD94/NKG2C concentration 0.2 μM): 0.009 | binding of peptide-HLA-E complex to CD94/NKG2C normalized to a fitted Rmax ([3]; CD94/NKG2C concentration 0.4 μM): 0.023 | binding of peptide-HLA-E complex to CD94/NKG2C normalized to a fitted Rmax ([3]; CD94/NKG2C concentration 0.8 μM): 0.046 | binding of peptide-HLA-E complex to CD94/NKG2C normalized to a fitted Rmax ([3]; CD94/NKG2C concentration 1.6 μM): 0.089 | binding of peptide-HLA-E complex to CD94/NKG2C normalized to a fitted Rmax ([3]; CD94/NKG2C concentration 3.2 μM): 0.168 | binding of peptide-HLA-E complex to CD94/NKG2C normalized to a fitted Rmax ([3]; CD94/NKG2C concentration 6.4 μM): 0.281 | binding of peptide-HLA-E complex to CD94/NKG2C normalized to a fitted Rmax ([3]; CD94/NKG2C concentration 12.8 μM): 0.443 | binding of peptide-HLA-E complex to CD94/NKG2C normalized to a fitted Rmax ([3]; CD94/NKG2C concentration 25.6 μM): 0.621 | binding of peptide-HLA-E complex to CD94/NKG2C normalized to a fitted Rmax ([3]; CD94/NKG2C concentration 51.2 μM): 0.755 | binding of peptide-HLA-E complex to CD94/NKG2C normalized to a fitted Rmax ([3]; CD94/NKG2C concentration 102.4 μM): 0.867 | Binding of peptide-HLA-E complexes to CD94/NKG2C normalized to a theoretical Rmax ([3]; CD94/NKG2C analyte concentration 0 μM): −0.003 | Binding of peptide-HLA-E complexes to CD94/NKG2C normalized to a theoretical Rmax ([3]; CD94/NKG2C analyte concentration 0.1 μM): 0.002 | Binding of peptide-HLA-E complexes to CD94/NKG2C normalized to a theoretical Rmax ([3]; CD94/NKG2C analyte concentration 0.2 μM): 0.007 | Binding of peptide-HLA-E complexes to CD94/NKG2C normalized to a theoretical Rmax ([3]; CD94/NKG2C analyte concentration 0.4 μM): 0.017 | Binding of peptide-HLA-E complexes to CD94/NKG2C normalized to a theoretical Rmax ([3]; CD94/NKG2C analyte concentration 0.8 μM): 0.034 | Binding of peptide-HLA-E complexes to CD94/NKG2C normalized to a theoretical Rmax ([3]; CD94/NKG2C analyte concentration 1.6 μM): 0.066 | Binding of peptide-HLA-E complexes to CD94/NKG2C normalized to a theoretical Rmax ([3]; CD94/NKG2C analyte concentration 3.2 μM): 0.124 | Binding of peptide-HLA-E complexes to CD94/NKG2C normalized to a theoretical Rmax ([3]; CD94/NKG2C analyte concentration 6.4 μM): 0.207 | Binding of peptide-HLA-E complexes to CD94/NKG2C normalized to a theoretical Rmax ([3]; CD94/NKG2C analyte concentration 12.8 μM): 0.326 | Binding of peptide-HLA-E complexes to CD94/NKG2C normalized to a theoretical Rmax ([3]; CD94/NKG2C analyte concentration 25.6 μM): 0.457 | Binding of peptide-HLA-E complexes to CD94/NKG2C normalized to a theoretical Rmax ([3]; CD94/NKG2C analyte concentration 51.2 μM): 0.555 | Binding of peptide-HLA-E complexes to CD94/NKG2C normalized to a theoretical Rmax ([3]; CD94/NKG2C analyte concentration 102.4 μM): 0.638 | effect on NKG2A−/NKG2C+ NK cell activation (in words) [4, 5]: strong activating effects | percentage of CCL3+ NK cells ([4]; Trial 1): 80.9% | percentage of CD107+ NK cells ([4]; Trial 1): 80% | percentage of IFNG+ NK cells ([4]; Trial 1): 69.5% | percentage of TNF+ NK cells ([4]; Trial 1): 57.3% | percentage of CCL3+ NK cells ([4]; Trial 2): 92.4% | percentage of CD107+ NK cells ([4]; Trial 2): 87.3% | percentage of IFNG+ NK cells ([4]; Trial 2): 82.3% | percentage of TNF+ NK cells ([4]; Trial 2): 72.6% | percentage of CCL3+ NK cells ([4]; Trial 3): 86.1% | percentage of CD107+ NK cells ([4]; Trial 3): 88.3% | percentage of IFNG+ NK cells ([4]; Trial 3): 83% | percentage of TNF+ NK cells ([4]; Trial 3): 73.8% | percentage of CCL3+ NK cells ([4]; Trial 4): 71.8% | percentage of CD107+ NK cells ([4]; Trial 4): 71.7% | percentage of IFNG+ NK cells ([4]; Trial 4): 64.5% | percentage of TNF+ NK cells ([4]; Trial 4): 56.2% | percentage of CCL3+ NK cells ([4]; Trial 5): 75.8% | percentage of CD107+ NK cells ([4]; Trial 5): 69.9% | percentage of IFNG+ NK cells ([4]; Trial 5): 63.2% | percentage of TNF+ NK cells ([4]; Trial 5): 57.8% | percentage of CCL3+ NK cells ([4]; Trial 6): 62.1% | percentage of CD107+ NK cells ([4]; Trial 6): 59.3% | percentage of IFNG+ NK cells ([4]; Trial 6): 50.7% | percentage of TNF+ NK cells ([4]; Trial 6): 41.1%
